Results published in patent publication US9771370B2, “Compounds for the inhibition of indoleamine-2,3-dioxygenase” (Merck Patent GmbH, priority 2014, dated 2017).
pIC50: −log10 of the molar value.

Molecular target: Recombinant human IDO (Homo sapiens, UniProt P14902)
Assay: Bridge-IT tryptophan fluorescence assay of human IDO-1 inhibition
Format: biochemical
Conditions: recombinant human IDO 7.5 nM, L-tryptophan
Method in brief: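 Two protocol variants: 100 μM L-Trp for 90 min at 37 °C, or 30 min enzyme–compound pre-incubation at 25 °C, then 50 μM L-Trp for 60 min at 25 °C. Reaction stopped in Bridge-IT solution A for 30 min at 30 °C.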

Sequence of Recombinant human IDO (P14902 whole entry): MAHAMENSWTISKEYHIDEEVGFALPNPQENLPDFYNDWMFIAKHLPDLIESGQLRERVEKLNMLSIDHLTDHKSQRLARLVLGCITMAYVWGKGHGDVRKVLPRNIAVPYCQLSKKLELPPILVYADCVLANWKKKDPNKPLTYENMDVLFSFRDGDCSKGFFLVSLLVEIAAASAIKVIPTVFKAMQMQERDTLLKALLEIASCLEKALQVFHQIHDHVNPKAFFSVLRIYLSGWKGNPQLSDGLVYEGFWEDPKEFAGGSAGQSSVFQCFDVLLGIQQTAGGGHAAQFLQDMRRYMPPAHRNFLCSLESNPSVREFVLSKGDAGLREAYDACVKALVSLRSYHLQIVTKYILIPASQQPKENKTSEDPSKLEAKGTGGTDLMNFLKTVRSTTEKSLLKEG

SMILES | pIC50
Fc1ccc2c(n1)C(CCC1(F)CCC(F)(F)CC1)n1cncc1-2 (stereo not drawn) [Compound 46, 10-fluoro-7-[2-(1,4,4-trifluorocyclohexyl)ethyl]-4,6,9-triazatricyclo[6.4.0.0^[2,6]]dodeca-1(8),2,4,9,11-pentaene] | < 6.00
OCC1CCC(F)(CCC2c3c(F)cccc3-c3cncn32)CC1 (single isomer, unassigned) [Compound 84d, [4-fluoro-4-[2-[6-fluoro-5H-imidazo[4,3-a]isoindol-5-yl]ethyl]cyclohexyl]methanol] | > 7.00
O=C(C1CCC(F)(CCC2c3c(Cl)cccc3-c3cncn32)CC1)N1CCCCC1 (single isomer, unassigned) [Compound 115b] | > 7.00
NC(=O)C1CCC(F)(CCC2c3c(Cl)cccc3-c3cncn32)CC1 (single isomer, unassigned) [Compound 99d, 4-[2-[6-chloro-5H-imidazo[4,3-a]isoindol-5-yl]ethyl]-4-fluorocyclohexane-1-carboxamide] | < 6.00
OC(CC1c2ncncc2-c2cncn21)C1CCCCC1 (single isomer, unassigned) [Compound 67c, 1-cyclohexyl-2-[4,6,9,11-tetraazatricyclo[6.4.0.0^[2,6]]dodeca-1(8),2,4,9,11-pentaen-7-yl]ethan-1-ol] | < 6.00
OC1CCC(F)(CCC2c3cccc(F)c3-c3cncn32)CC1 (single isomer, unassigned) [Compound 35b, 4-fluoro-4-(2-(9-fluoro-5H-imidazo[5,1-a]isoindol-5-yl)ethyl)cyclohexanol] | 6.00 to 7.00
OC(CC1c2cc(F)ncc2-c2cncn21)C1CCCCC1 (single isomer, unassigned) [Compound 24a, 1-cyclohexyl-2-[10-fluoro-4,6,11-triazatricyclo[6.4.0.0^[2,6]]dodeca-1(8),2,4,9,11-pentaen-7-yl]ethan-1-ol] | < 6.00
OCC1CCC(F)(CCC2c3ccccc3-c3cncn32)CC1 (single isomer, unassigned) [Compound 59d, [4-fluoro-4-[2-[5H-imidazo[4,3-a]isoindol-5-yl]ethyl]cyclohexyl]methanol] | < 6.00
OC(CC1c2c(ccnc2F)-c2cncn21)C1CCCCC1 (stereo not drawn) [Compound 2a, 1-Cyclohexyl-2-[9-fluoro-4,6,10-triazatricyclo[6.4.0.0^[2,6]]dodeca-1(8),2,4,9,11-pentaen-7-yl]ethan-1-ol] | < 6.00
OC1CCC(F)(CCC2c3ncccc3-c3cncn32)CC1 (single isomer, unassigned) [Compound 8b, 4-fluoro-4-(2-{4,6,9-triazatricyclo[6.4.0.0^[2,6]]dodeca-1(8),2,4,9,11-pentaen-7-yl}ethyl)cyclohexan-1-ol] | < 6.00
NC(=O)CC1CCC(F)(CCC2c3c(Cl)cccc3-c3cncn32)CC1 (single isomer, unassigned) [Compound 113a, 2-[4-[2-[6-chloro-5H-imidazo[4,3-a]isoindol-5-yl]ethyl]-4-fluorocyclohexyl]acetamide] | > 7.00
CN(C)C(=O)C1CCC(F)(CCC2c3c(Cl)cccc3-c3cncn32)CC1 (single isomer, unassigned) [Compound 114c, 4-[2-[6-chloro-5H-imidazo[4,3-a]isoindol-5-yl]ethyl]-4-fluoro-N,N-dimethylcyclohexane-1-carboxamide] | < 6.00
COc1cccc2c1-c1cncn1C2CCC1(F)CCC(O)CC1 (stereo not drawn) [Compound 41a, 4-fluoro-4-(2-(9-methoxy-5H-imidazo[5,1-a]isoindol-5-yl)ethyl)cyclohexanol] | < 6.00
OC1CCC(F)(CCC2c3ccccc3-c3cncn32)CC1 (single isomer, unassigned) [Compound 13a, 4-(2-(5H-imidazo[5,1-a]isoindol-5-yl)ethyl)-4-fluorocyclohexanol] | < 6.00
CC(C)(O)C1CCC(F)(CCC2c3c(Cl)cccc3-c3cncn32)CC1 (stereo not drawn) [Compound 107b, 2-[4-(2-[6-chloro-5H-imidazo[4,3-a]isoindol-5-yl]ethyl)-4-fluorocyclohexyl]propan-2-ol] | 6.00 to 7.00
NC1CCC(F)(CCC2c3ccccc3-c3cncn32)CC1 (mixture of isomers) [Compound 104a, 4-fluoro-4-(2-[5H-imidazo[4,3-a]isoindol-5-yl]ethyl)cyclohexan-1-amine] | < 6.00
FC1(CCC2c3ncccc3-c3cncn32)CCOCC1 (single isomer, unassigned) [Compound 93a, 7-[2-(4-fluorooxan-4-yl)ethyl]-4,6,9-triazatricyclo[6.4.0.0^[2,6]]dodeca-1(8),2,4,9,11-pentaene] | < 6.00
OC(CC1c2nc(OC3CC3)ccc2-c2cncn21)C1CCC(F)(F)CC1 (single isomer, unassigned) [Compound 69b, 2-[10-cyclopropoxy-4,6,9-triazatricyclo[6.4.0.0^[2,6]]dodeca-1(8),2,4,9,11-pentaen-7-yl]-1-(4,4-difluorocyclohexyl)ethan-1-ol] | < 6.00

SMILES | pIC50
OC1CCC(F)(CCC2c3c(F)ccc(F)c3-c3cncn32)CC1 (single isomer, unassigned) [Compound 38a, 4-(2-(6,9-difluoro-5H-imidazo[5,1-a]isoindol-5-yl)ethyl)-4-fluorocyclohexanol] | < 6.00
NC(=O)CC1CCC(F)(CCC2c3c(Cl)cccc3-c3cncn32)CC1 (single isomer, unassigned) [Compound 113b, 2-[4-[2-[6-chloro-5H-imidazo[4,3-a]isoindol-5-yl]ethyl]-4-fluorocyclohexyl]acetamide] | < 6.00
CN(C)C(=O)C1CCC(F)(CCC2c3c(F)cccc3-c3cncn32)CC1 (stereo not drawn) [Compound 111b, 4-fluoro-4-(2-[6-fluoro-5H-imidazo[4,3-a]isoindol-5-yl]ethyl)-N,N-dimethylcyclohexane-1-carboxamide] | 6.00 to 7.00
COc1ccc2c(n1)C(CC(O)C1CCC3(CC1)CC3)n1cncc1-2 (single isomer, unassigned) [Compound 53c, 2-[10-methoxy-4,6,9-triazatricyclo[6.4.0.0^[2,6]]dodeca-1(8),2,4,9,11-pentaen-7-yl]-1-[spiro[2.5]octan-6-yl]ethan-1-ol] | < 6.00
NC(=O)C1CCC(C(O)CC2c3ncccc3-c3cncn32)CC1 (single isomer, unassigned) [Compound 63c, 4-[1-hydroxy-2-[4,6,9-triazatricyclo[6.4.0.0^[2,6]]dodeca-1(8),2,4,9,11-pentaen-7-yl]ethyl]cyclohexane-1-carboxamide] | < 6.00
NC(=O)C1CCC(F)(CCC2c3c(F)cccc3-c3cncn32)CC1 (single isomer, unassigned) [Compound 81b, 4-fluoro-4-[2-[6-fluoro-5H-imidazo[4,3-a]isoindol-5-yl]ethyl]cyclohexane-1-carboxamide] | < 6.00
NC(=O)CC1CCC(F)(CCC2c3c(Cl)cccc3-c3cncn32)CC1 (single isomer, unassigned) [Compound 113c, 2-[4-[2-[6-chloro-5H-imidazo[4,3-a]isoindol-5-yl]ethyl]-4-fluorocyclohexyl]acetamide] | < 6.00
OC(CC1c2ncncc2-c2cncn21)C1CCCCC1 (mixture of isomers) [Compound 67d, 1-cyclohexyl-2-[4,6,9,11-tetraazatricyclo[6.4.0.0^[2,6]]dodeca-1(8),2,4,9,11-pentaen-7-yl]ethan-1-ol] | < 6.00
OC(CC1c2c(Cl)cccc2-c2cncn21)C1(F)CCCCC1 (single isomer, unassigned) [Compound 83b, 2-[6-chloro-5H-imidazo[4,3-a]isoindol-5-yl]-1-(1-fluorocyclohexyl)ethan-1-ol] | 6.00 to 7.00
OCC1CCC(F)(CCC2c3ccccc3-c3cncn32)CC1 (single isomer, unassigned) [Compound 59a, [4-fluoro-4-[2-[5H-imidazo[4,3-a]isoindol-5-yl]ethyl]cyclohexyl]methanol] | < 6.00
OC(CC1c2ncccc2-c2cncn21)C1CCC(F)(F)CC1 (single isomer, unassigned) [Compound 22d, 1-(4,4-difluorocyclohexyl)-2-[4,6,9-triazatricyclo[6.4.0.0^[2,6]]dodeca-1(8),2,4,9,11-pentaen-7-yl]ethan-1-ol] | < 6.00
FC1(CCC2c3c(Cl)cccc3-c3cncn32)CCOCC1 (single isomer, unassigned) [Compound 96a, 6-chloro-5-[2-(4-fluorooxan-4-yl)ethyl]-5H-imidazo[4,3-a]isoindole] | < 6.00
CC1(C)CCC(F)(CCC2c3ncncc3-c3cncn32)CC1 (single isomer, unassigned) [Compound 66a, 7-[2-(1-fluoro-4,4-dimethylcyclohexyl)ethyl]-4,6,9,11-tetraazatricyclo[6.4.0.0^[2,6]]dodeca-1(8),2,4,9,11-pentaene] | < 6.00
CN(C)C(=O)C1CCC(F)(CCC2c3c(Cl)cccc3-c3cncn32)CC1 (single isomer, unassigned) [Compound 114d, 4-[2-[6-chloro-5H-imidazo[4,3-a]isoindol-5-yl]ethyl]-4-fluoro-N,N-dimethylcyclohexane-1-carboxamide] | < 6.00
OC(CC1c2nc(Cl)ccc2-c2cncn21)C1CCCCC1 (single isomer, unassigned) [Compound 55a, 2-[10-chloro-4,6,9-triazatricyclo[6.4.0.0^[2,6]]dodeca-1(8),2,4,9,11-pentaen-7-yl]-1-cyclohexylethan-1-ol] | 6.00 to 7.00
CC(C)[C@H](N)C(=O)N1CCC(F)(CCC2c3ccccc3-c3cncn32)CC1 (single isomer, unassigned) [Compound 89a] | < 6.00
OC1CCC(F)(CCC2c3c(F)ccc(F)c3-c3cncn32)CC1 (single isomer, unassigned) [Compound 38c, 4-(2-(6,9-difluoro-5H-imidazo[5,1-a]isoindol-5-yl)ethyl)-4-fluorocyclohexanol] | < 6.00
O=C(O)C1CCC(F)(CCC2c3ccccc3-c3cncn32)CC1 (single isomer, unassigned) [Compound 82a, 4-fluoro-4-(2-[5H-imidazo[4,3-a]isoindol-5-yl]ethyl)cyclohexane-1-carboxylic acid] | > 7.00
